Test system: mouse lymphoma L5178Y cells
Test: In Vitro Micronucleus Assay (genotoxicity)
Type: cell-based
Details: 3 hours exposure in the presence or absence of S9 mix, up to 1 mmol/L or solubility limit
Description: In Vitro Micronucleus Assay
The following is a description of an assay that may be used to assess the genotoxicity of a compound using mouse lymphoma […] cells.
The in vitro micronucleus assay (IVM) detects chemicals that induce chromosomal damage by measuring the formation of small intra cell membrane-bound DNA fragments. At AstraZeneca, L5178Y cells are used as these are the cells of choice for follow on regulatory mammalian cell in vitro genotoxicity screening. The test system is simple to perform and produces rapid results. The IVM is suitable as a preliminary genetic toxicity-screening assay prior to compound selection.
A wide range of test chemical concentrations, up to 1 mmol/L or the chemicals solubility limit, is tested. […] Where possible, 20 hours after treatment exposure, at least three concentrations giving acceptable levels of toxicity (greater than 10% survival as measured by two day relative suspension growth) are selected for analysis of micronucleated cells. […] Where possible, a total of at least 1000 cells per culture are scored.
For any concentration, an increase in the number of micronucleated cells is considered to be significant if the increase is at least 2-fold the concurrent solvent control level, and the number of micronucleated cells is greater than 8 per thousand cells scored.

| Compound | activity in micronucleus assay (significant = at least 2-fold solvent control and more than 8 micronucleated cells per thousand) |
| --- | --- |
| Cc1c(F)cc(C(=O)NC2CC2)cc1-c1ccc2c(=O)n(CC(C)(C)CO)cc(CN3CCNC[C@H]3C)c2c1 [Example 26, N-Cyclopropyl-3-fluoro-5-[2-(3-hydroxy-2,2-dimethylpropyl)-4-{[(2R)-2-methylpiperazin-1-yl]methyl}-1-oxo-1,2-dihydroisoquinolin-6-yl]-4-methylbenzamide] | inactive |

Test system: LPS-induced BAL neutrophilia
Test: LPS Challenge Assay (neutrophil migration into the airway after aerosol LPS challenge)
Type: in vivo, Han Wistar (HW) rat
Details: Han Wistar rat; nose-only inhalation; nebuliser concentration of <1 mg/mL; dosed 0.5 hour before the LPS challenge
Method: The following is a description of an assay that may be used to evaluate a compounds activity on neutrophil migration into the airway after aerosol challenge with lipopolysaccharide (LPS) in the Han Wistar (HW) rat.
LPS challenge in HW rats caused an influx of inflammatory cells into the lungs. Rats were challenged either with an aerosol of 0.9% w/v saline or 0.5 mg/mL LPS in 0.9% saline for 30 min. Rats were dosed with vehicle or test compound by nose-only inhalation administration at various time points before challenge depending upon the experimental protocol. Test compound groups could either be the same compound at different doses or single doses of different compounds. […]
The rats were euthanized with 200 mg pentobarbitone sodium at various time points after challenge depending upon the nature of the study, but typically 4 hr after LPS challenge. […] An aliquot of BAL fluid was removed and counted on the Sysmex XT2000Vet automated cell counter (Sysmex UK, Milton Keynes). […] Cells were classified as eosinophils, neutrophils or mononuclear cells (mononuclear cells included monocytes, macrophages and lymphocytes) and were expressed as a percentage of the total cell count.
Compounds were scored as active if a statistically significant (i.e. p<0.05) inhibition of the LPS-induced BAL neutrophilia response was observed.

| Compound | activity in LPS Challenge Assay (active = statistically significant, p<0.05, inhibition of the LPS-induced BAL neutrophilia response) |
| --- | --- |
| Cc1c(F)cc(C(=O)NC2CC2)cc1-c1ccc2c(=O)n(CC(C)(C)CO)cc(CN3CCNC[C@H]3C)c2c1 [Example 26, N-Cyclopropyl-3-fluoro-5-[2-(3-hydroxy-2,2-dimethylpropyl)-4-{[(2R)-2-methylpiperazin-1-yl]methyl}-1-oxo-1,2-dihydroisoquinolin-6-yl]-4-methylbenzamide] | active |

Target: T1, human active recombinant p38 (p38α) (Homo sapiens, UniProt Q16539)
T1 construct: 6His
Test: p38 Alpha Enzyme Assay (AlphaScreen, biotinylated-ATF2 substrate)
Type: biochemical
Details: means of replicate determinations; pre-incubated for 4 hours at 37° C.; SD of assay between 0.2 and 0.3 log units

T1 sequence (Q16539 whole entry): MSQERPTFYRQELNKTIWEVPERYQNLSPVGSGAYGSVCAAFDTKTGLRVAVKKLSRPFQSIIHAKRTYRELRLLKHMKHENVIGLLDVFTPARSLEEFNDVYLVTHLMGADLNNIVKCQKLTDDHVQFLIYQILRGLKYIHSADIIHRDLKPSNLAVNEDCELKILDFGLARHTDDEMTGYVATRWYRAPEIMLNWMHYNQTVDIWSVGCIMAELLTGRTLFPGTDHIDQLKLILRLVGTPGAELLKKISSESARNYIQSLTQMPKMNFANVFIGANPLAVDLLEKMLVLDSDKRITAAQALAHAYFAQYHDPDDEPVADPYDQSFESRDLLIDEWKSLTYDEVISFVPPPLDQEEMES

| p38α inhibition Mean pIC50 | Compound |
| --- | --- |
| 9.5 | N-Cyclopropyl-3-fluoro-5-(2-[2-(hydroxymethyl)-2-methylbutyl]-4-{[(3S)-3-methylpiperazin-1-yl]methyl}-1-oxo-1,2-dihydroisoquinolin-6-yl)-4-methylbenzamide [Example 37] |

Same assay, conditions: means of replicate determinations; pre-incubated for 4 hours at 37° C.; SD of assay between 0.2 and 0.3 log units; read-out: p38α inhibition Mean pIC50 (converted)

| IC50 [nM] | Compound |
| --- | --- |
| 0.251 | Cc1c(F)cc(C(=O)NC2CC2)cc1-c1ccc2c(=O)n(CC(C)(C)CO)cc(CN3CCNC[C@H]3C)c2c1 [Example 26, N-Cyclopropyl-3-fluoro-5-[2-(3-hydroxy-2,2-dimethylpropyl)-4-{[(2R)-2-methylpiperazin-1-yl]methyl}-1-oxo-1,2-dihydroisoquinolin-6-yl]-4-methylbenzamide] |
| 0.501 | Cc1c(F)cc(C(=O)NC2CC2)cc1-c1ccc2c(=O)n(CC(C)(C)CO)cc([S+]([O-])C3CCNCC3)c2c1 (stereo not shown) [Example 59, N-Cyclopropyl-3-fluoro-5-[2-(3-hydroxy-2,2-dimethylpropyl)-1-oxo-4-(piperidin-4-ylsulfinyl)-1,2-dihydroisoquinolin-6-yl]-4-methylbenzamide] |
| 0.398 | Cc1c(F)cc(C(=O)NC2CC2)cc1-c1ccc2c(=O)n(CC(C)(C)CO)cc(S(=O)(=O)C3CCNCC3)c2c1 [Example 60, N-Cyclopropyl-3-fluoro-5-[2-(3-hydroxy-2,2-dimethylpropyl)-1-oxo-4-(piperidin-4-ylsulfonyl)-1,2-dihydroisoquinolin-6-yl]-4-methylbenzamide] |
| 0.1 | Cc1c(F)cc(C(=O)NC2CC2)cc1-c1ccc2c(=O)n(CC3CC3)cc(SC3CCNCC3)c2c1 [Example 61, N-Cyclopropyl-3-[2-(cyclopropylmethyl)-1-oxo-4-(piperidin-4-ylsulfanyl)-1,2-dihydroisoquinolin-6-yl]-5-fluoro-4-methylbenzamide] |
| 0.2 | Cc1c(F)cc(C(=O)NC2CC2)cc1-c1ccc2c(=O)n(CC3CC3)cc(S(=O)(=O)C3CCNCC3)c2c1 [Example 62, N-Cyclopropyl-3-[2-(cyclopropylmethyl)-1-oxo-4-(piperidin-4-ylsulfonyl)-1,2-dihydroisoquinolin-6-yl]-5-fluoro-4-methylbenzamide] |
| 0.398 | Cc1c(F)cc(C(=O)NC2CC2)cc1-c1ccc2c(=O)n(CC3(CO)CC3)cc(SC[C@@H]3CCCNC3)c2c1 [Example 63] |
| 0.1 | Cc1c(F)cc(C(=O)NC2CC2)cc1-c1ccc2c(=O)n(CC3(CO)CC3)cc(SC3CCNCC3)c2c1 [Example 64, N-Cyclopropyl-3-fluoro-5-[2-{[1-(hydroxymethyl)cyclopropyl]methyl}-1-oxo-4-(piperidin-4-ylsulfanyl)-1,2-dihydroisoquinolin-6-yl]-4-methylbenzamide] |
| < 0.0631 | Cc1c(F)cc(C(=O)NC2CC2)cc1-c1ccc2c(=O)n(CC(C)(C)CO)cc(S[C@@H]3CCNC3)c2c1 [Example 65, N-Cyclopropyl-3-fluoro-5-{2-(3-hydroxy-2,2-dimethylpropyl)-1-oxo-4-[(3R)-pyrrolidin-3-ylsulfanyl]-1,2-dihydroisoquinolin-6-yl}-4-methylbenzamide] |
| 0.2 | Cc1c(F)cc(C(=O)NC2CC2)cc1-c1ccc2c(=O)n(CC(C)(CO)CO)cc(SC3CCNCC3)c2c1 [Example 66, N-Cyclopropyl-3-fluoro-5-{2-[3-hydroxy-2-(hydroxymethyl)-2-methylpropyl]-1-oxo-4-(piperidin-4-ylsulfanyl)-1,2-dihydroisoquinolin-6-yl}-4-methylbenzamide] |
| 0.251 | Cc1c(F)cc(C(=O)NC2CC2)cc1-c1ccc2c(=O)n(CC(C)(C)CO)cc(S[C@H]3CCN[C@H](CO)C3)c2c1 [Example 67, N-Cyclopropyl-3-fluoro-5-[2-(3-hydroxy-2,2-dimethylpropyl)-4-{[(2S,4S)-2-(hydroxymethyl)piperidin-4-yl]sulfanyl}-1-oxo-1,2-dihydroisoquinolin-6-yl]-4-methylbenzamide] |

— patent publication US8012980B2, “Isoquinolinone derivatives” (AstraZeneca AB, priority 2008, dated 2011)
